Data taken from the supplement of paper PMC10307832.

Experiments:
Assay in all cases: relative viability (nuclei count vs DMSO), 5 days (fraction); higher = more cells survive
[1] = compound: C1=CC=C(C(=C1)C2=CC=C(C=C2)C3=CSC4=C3C(=C(C(=O)N4)C#N)O)O + CC(C)C[C@H](NC(=O)[C@H](Cc1ccccc1)NC(=O)c1cnccn1)B(O)O [Bortezomib] (partner 0.002 µM)
How it was run: (§1)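 Dosing by pin tool came one day after lung cancer cell lines were seeded in 1536-well plates, using either one drug or a fixed anchor-drug dose plus five library-drug doses (not always all listed) in √10 steps. After 5 days, nuclei were counted on 4× images. Relative viability is treated-well nuclei count divided by vehicle-well nuclei count, and values are medians of duplicate plates.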

[2] = compound: C1=CC=C(C(=C1)C2=CC=C(C=C2)C3=CSC4=C3C(=C(C(=O)N4)C#N)O)O + CS(=O)(=O)N1CCN(Cc2cc3nc(-c4cccc5[nH]ncc45)nc(N4CCOCC4)c3s2)CC1 [Pictilisib] (partner 1 µM)
How it was run: as §1

TGX 221 + Phenformin = compound: CC1=CN2C(=O)C=C(N=C2C(=C1)C(C)NC3=CC=CC=C3)N4CCOCC4 [TGX 221] + N=C(N)NC(=N)NCCc1ccccc1 [Phenformin] (partner 250 µM)
How it was run: as §1

TGX 221 + Decitabine = compound: CC1=CN2C(=O)C=C(N=C2C(=C1)C(C)NC3=CC=CC=C3)N4CCOCC4 [TGX 221] + Nc1ncn([C@H]2C[C@H](O)[C@@H](CO)O2)c(=O)n1 [Decitabine] (partner 2 µM)
How it was run: as §1

| Cell Line | relative viability ([1]; first compound 0.08 µM) | relative viability ([1]; first compound 0.253 µM) | relative viability ([1]; first compound 0.8 µM) | relative viability ([1]; first compound 2.53 µM) | relative viability ([1]; first compound 8 µM) | relative viability ([2]; first compound 0.08 µM) | relative viability ([2]; first compound 0.253 µM) | relative viability ([2]; first compound 0.8 µM) | relative viability ([2]; first compound 2.53 µM) | relative viability ([2]; first compound 8 µM) | relative viability (TGX 221 + Phenformin; first compound 0.08 µM) | relative viability (TGX 221 + Phenformin; first compound 0.253 µM) | relative viability (TGX 221 + Phenformin; first compound 0.8 µM) | relative viability (TGX 221 + Phenformin; first compound 2.53 µM) | relative viability (TGX 221 + Phenformin; first compound 8 µM) | relative viability (TGX 221 + Decitabine; first compound 0.08 µM) | relative viability (TGX 221 + Decitabine; first compound 0.253 µM) | relative viability (TGX 221 + Decitabine; first compound 0.8 µM) | relative viability (TGX 221 + Decitabine; first compound 2.53 µM) | relative viability (TGX 221 + Decitabine; first compound 8 µM) |
| --- | --- | --- | --- | --- | --- | --- | --- | --- | --- | --- | --- | --- | --- | --- | --- | --- | --- | --- | --- | --- |
| NCI-H2087 | 0.609 | 1 | 0.796 | 0.833 | 0.899 | 0.783 | 0.892 | 0.956 | 0.848 | 0.772 | 0.425 | 0.455 | 0.524 | 0.472 | 0.471 | 0.231 | 0.261 | 0.235 | 0.252 | 0.304 |
| NCI-H1650 | – | 0.241 | 0.228 | 0.207 | 0.207 | – | 0.855 | 0.681 | 0.53 | 0.501 | 0.419 | 0.3 | 0.377 | 0.382 | 0.255 | 0.433 | 0.376 | 0.386 | 0.486 | 0.43 |
| NCI-H1563 | 0.543 | 0.953 | 0.909 | 0.785 | 0.759 | 0.629 | 0.655 | 0.689 | 0.703 | 0.637 | 0.708 | 0.618 | 0.671 | 0.654 | 0.597 | – | – | – | – | – |
| NCI-H1666 | 0.849 | 0.838 | 0.693 | 0.904 | 0.782 | 0.321 | 0.572 | 0.404 | 0.29 | 0.405 | 0.556 | 0.52 | 0.598 | 0.561 | 0.529 | 0.649 | 0.738 | 0.76 | 0.709 | 0.664 |
| LCLC-103H | 0.99 | 1.13 | 1.05 | 1.13 | 1.15 | 0.544 | 0.664 | 0.541 | 0.554 | 0.576 | 0.302 | 0.344 | 0.311 | 0.321 | 0.324 | 0.777 | 0.704 | 0.677 | 0.725 | 0.754 |
| HOP-62 | 0.805 | 0.632 | 0.783 | 0.742 | 0.505 | 0.774 | 0.773 | 0.673 | 0.837 | 0.434 | 0.641 | 0.639 | 0.728 | 0.714 | 0.777 | 0.213 | 0.185 | 0.207 | 0.246 | 0.268 |
| BEN | 0.578 | 0.789 | 0.944 | 0.892 | 0.676 | 0.547 | 0.597 | 0.437 | 0.547 | 0.428 | 0.24 | 0.257 | 0.273 | 0.27 | 0.265 | 0.679 | 0.669 | 0.667 | 0.715 | 0.715 |
| NCI-H1299 | 1.07 | 1.04 | 0.995 | 1 | 0.975 | 1.04 | 0.858 | 0.826 | 0.771 | 0.594 | – | – | – | – | – | – | – | – | – | – |
| UMC-11 | 0.519 | 0.742 | 0.56 | 0.8 | 0.487 | 0.695 | 0.717 | 0.855 | 0.829 | 0.778 | 0.322 | 0.288 | 0.302 | 0.349 | 0.324 | 0.522 | 0.545 | 0.725 | 0.572 | 0.62 |
